Consider twelve compounds from patent US11613556B2, “Oxysterols and methods of use thereof” (Sage Therapeutics, Inc., priority 2016, dated 2023).

Read-outs that look alike come from different tables or passages of the source. Where only a bound is given, the exact number is not on record here.

In assay [1] the target is GluN1/GluN2A glutamate receptors (human GRIN1/GRIN2A) expressed in HEK293 cells (Homo sapiens (Human), UniProt Q05586+Q12879). Briefly: Whole-cell patch clamp of mammalian cells (Ionworks Barracuda), positive allosteric modulation, GluN1/GluN2A. The note with it: for Emax: read-out: GluN2A PCA EMax (%). Format: cell-based. How it is done: (§1) NMDA potentiation in mammalian cells which expressed NMDA receptors was assessed using the automatic patch-clamp system can be used determine the NAM activity of compounds as described below. An whole cell patch-clamp system can be used determine the PAM activity of compounds as described below.
GluN1/GluN2A glutamate receptors (human GRIN1/GRIN2A) expressed in HEK293 cells, sequence (Q12879 whole entry, looked up, other chains not shown): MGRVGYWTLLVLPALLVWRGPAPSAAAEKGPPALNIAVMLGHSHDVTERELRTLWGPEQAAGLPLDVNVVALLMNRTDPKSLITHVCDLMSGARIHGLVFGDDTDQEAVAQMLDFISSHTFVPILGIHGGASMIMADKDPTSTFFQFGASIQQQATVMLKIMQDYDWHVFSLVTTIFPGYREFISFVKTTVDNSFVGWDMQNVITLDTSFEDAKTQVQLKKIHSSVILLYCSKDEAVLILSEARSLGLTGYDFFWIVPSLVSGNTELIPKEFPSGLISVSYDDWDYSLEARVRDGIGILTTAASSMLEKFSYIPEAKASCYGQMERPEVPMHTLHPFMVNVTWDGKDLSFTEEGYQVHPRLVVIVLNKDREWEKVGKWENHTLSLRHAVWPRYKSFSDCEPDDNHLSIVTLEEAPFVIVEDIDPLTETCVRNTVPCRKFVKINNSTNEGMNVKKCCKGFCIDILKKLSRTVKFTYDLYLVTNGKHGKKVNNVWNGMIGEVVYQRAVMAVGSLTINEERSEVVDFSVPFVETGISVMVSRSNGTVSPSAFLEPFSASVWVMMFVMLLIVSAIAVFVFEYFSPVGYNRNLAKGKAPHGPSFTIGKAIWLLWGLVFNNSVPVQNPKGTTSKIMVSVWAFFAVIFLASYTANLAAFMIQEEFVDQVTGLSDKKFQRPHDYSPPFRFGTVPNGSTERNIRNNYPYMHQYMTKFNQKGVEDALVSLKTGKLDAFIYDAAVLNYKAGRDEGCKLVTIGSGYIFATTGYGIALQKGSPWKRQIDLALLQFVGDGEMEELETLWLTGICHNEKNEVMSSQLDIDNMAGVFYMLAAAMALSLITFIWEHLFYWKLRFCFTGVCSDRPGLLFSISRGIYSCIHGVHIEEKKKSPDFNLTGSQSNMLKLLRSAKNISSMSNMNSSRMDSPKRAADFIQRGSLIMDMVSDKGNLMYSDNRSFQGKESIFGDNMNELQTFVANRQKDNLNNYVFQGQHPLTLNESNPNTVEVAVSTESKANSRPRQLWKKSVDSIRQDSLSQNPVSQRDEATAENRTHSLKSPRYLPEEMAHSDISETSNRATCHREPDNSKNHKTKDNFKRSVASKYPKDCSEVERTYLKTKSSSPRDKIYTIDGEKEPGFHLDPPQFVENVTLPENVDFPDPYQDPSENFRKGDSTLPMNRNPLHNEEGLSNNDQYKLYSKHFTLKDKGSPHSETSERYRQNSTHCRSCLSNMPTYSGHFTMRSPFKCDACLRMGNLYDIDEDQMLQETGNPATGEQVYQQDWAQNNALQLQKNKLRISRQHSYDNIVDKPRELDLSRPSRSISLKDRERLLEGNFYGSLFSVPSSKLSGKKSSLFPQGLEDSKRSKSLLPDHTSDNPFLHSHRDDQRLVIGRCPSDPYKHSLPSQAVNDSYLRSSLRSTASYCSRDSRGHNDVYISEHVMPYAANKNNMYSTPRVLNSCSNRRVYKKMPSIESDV
(§2) The measurements were performed using Ion Works Barracuda platform following this procedure:
(§3) Electrophysiological Procedures: • a) Intracellular solution (mM): 50 mM CsCl, 90 mM CsF, 2 mM MgCl2, 5 mM EGTA, 10 mM HEPES. Adjust to pH 7.2 with CsOH. • b) Extracellular solution, HB-PS (composition in mM): NaCl, 137; KCl, 1.0; CaCl2, 5; HEPES, 10; Glucose, 10; pH adjusted to 7.4 with NaOH (refrigerated until use). • c) Holding potential: −70 mV, potential during agonist/PAM application: −40 mV.
(§4) Recording Procedure: • a) Extracellular buffer will be loaded into the PPC plate wells (11 μL per well). Cell suspension will be pipetted into the wells (9 μL per well) of the PPC planar electrode. • b) Whole-cell recording configuration will be established via patch perforation with membrane currents recorded by on-board patch clamp amplifiers. • c) Two recordings (scans) will be performed. First, during pre-application of test article alone (duration of pre-application—5 min) and second, during test articles and agonist (EC20 L-glutamate and 30 μM glycine) co-application to detect positive modulatory effects of the test article.
(§5) Test Article Administration: The first pre-application will consist of the addition of 20 μL of 2× concentrated test article solution and, second, of 20 μL of 1× concentrated test article and agonist at 10 μL/s (2 second total application time).
(§6) Potentiating Effect of Positive Allosteric Modulators (PAM) on the Channel
(§7) The maximal amplitude of the evoked currents are measured and defined as Peak Current Amplitude (PCA).

For assay [2], the target named is GluN2B glutamate receptors expressed in mammalian cells (Homo sapiens (Human), UniProt Q05586+Q13224). The assay is described as follows: Whole-cell patch clamp of mammalian cells (Ionworks Barracuda), positive allosteric modulation, GluN2B. The note with it: for Emax: read-out: GluN2B PCA EMax (%). Format: cell-based. Here is the method: as §1, §2, §3, §4, §5, §6, §7
GluN2B glutamate receptors expressed in mammalian cells, sequence (Q13224 27-1484, other chains not shown): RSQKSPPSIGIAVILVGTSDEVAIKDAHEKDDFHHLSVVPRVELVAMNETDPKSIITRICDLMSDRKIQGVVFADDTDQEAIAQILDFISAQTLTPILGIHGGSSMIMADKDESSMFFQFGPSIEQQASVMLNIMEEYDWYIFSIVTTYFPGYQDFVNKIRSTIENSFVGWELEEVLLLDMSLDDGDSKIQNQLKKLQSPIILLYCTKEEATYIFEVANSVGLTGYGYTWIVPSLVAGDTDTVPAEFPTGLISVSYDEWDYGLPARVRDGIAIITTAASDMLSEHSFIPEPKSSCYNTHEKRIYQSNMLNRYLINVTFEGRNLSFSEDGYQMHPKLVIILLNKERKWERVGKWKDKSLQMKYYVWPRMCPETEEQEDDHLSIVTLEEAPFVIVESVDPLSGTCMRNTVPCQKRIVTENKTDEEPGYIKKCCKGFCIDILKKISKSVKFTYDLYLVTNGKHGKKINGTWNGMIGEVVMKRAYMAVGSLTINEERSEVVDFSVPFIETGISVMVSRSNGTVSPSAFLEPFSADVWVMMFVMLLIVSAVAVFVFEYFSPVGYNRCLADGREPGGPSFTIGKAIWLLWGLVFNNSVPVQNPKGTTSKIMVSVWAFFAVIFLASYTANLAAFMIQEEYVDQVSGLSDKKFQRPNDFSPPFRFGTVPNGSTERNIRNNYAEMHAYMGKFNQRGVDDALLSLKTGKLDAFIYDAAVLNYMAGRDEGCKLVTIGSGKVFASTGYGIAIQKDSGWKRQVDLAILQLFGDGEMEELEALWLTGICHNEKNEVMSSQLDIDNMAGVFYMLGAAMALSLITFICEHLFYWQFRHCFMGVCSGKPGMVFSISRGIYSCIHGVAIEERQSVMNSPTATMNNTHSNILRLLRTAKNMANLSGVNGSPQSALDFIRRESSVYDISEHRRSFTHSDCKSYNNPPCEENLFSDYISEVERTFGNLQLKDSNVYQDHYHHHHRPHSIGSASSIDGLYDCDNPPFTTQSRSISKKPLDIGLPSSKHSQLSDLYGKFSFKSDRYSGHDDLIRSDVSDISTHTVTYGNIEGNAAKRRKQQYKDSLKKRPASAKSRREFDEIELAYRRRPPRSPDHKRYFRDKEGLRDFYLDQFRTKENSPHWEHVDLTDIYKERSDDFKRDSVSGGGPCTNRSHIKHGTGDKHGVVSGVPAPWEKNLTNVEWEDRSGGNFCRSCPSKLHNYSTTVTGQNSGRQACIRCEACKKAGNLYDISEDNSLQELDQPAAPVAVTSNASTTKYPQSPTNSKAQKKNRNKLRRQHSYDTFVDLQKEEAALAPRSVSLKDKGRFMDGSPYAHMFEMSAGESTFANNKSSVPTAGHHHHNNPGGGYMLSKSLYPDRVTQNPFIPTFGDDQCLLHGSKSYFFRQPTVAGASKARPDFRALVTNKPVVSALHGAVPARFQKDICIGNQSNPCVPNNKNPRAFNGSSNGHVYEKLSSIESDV
On the technique in general: The patch-clamp technique gives a direct electrical read-out from membranes.

Setting [3] is: peak current amplitude, co-application with EC20 L-glutamate and 30 μM glycine, HEK293, read-out: GluN2A PCA EC50.
The mark [4] stands for this setting: peak current amplitude, co-application with EC20 L-glutamate and 30 μM glycine, HEK293.
Setting [5] is: peak current amplitude, co-application with EC20 L-glutamate and 30 μM glycine, read-out: GluN2B PCA EC50.
[6] abbreviates: peak current amplitude, co-application with EC20 L-glutamate and 30 μM glycine.

Turning to `C[C@@H]([C@H]1CC[C@H]2[C@@H]3CC[C@H]4C[C@](O)(C(F)(F)F)CC[C@]4(C)[C@H]3CC[C@]12C)[C@@H](O)C[C@@H](O)c1ccccc1` [Compound 79, (1R,3S,4S)-4-((3S,5S,8R,9S,10S,13S,14S,17R)-3-hydroxy-10,13-dimethyl-3-(trifluoromethyl)hexadecahydro-1H-cyclopenta[a]phenanthren-17-yl)-1-phenylpentane-1,3-diol], the EC50 in assay [1] (setting [3]) and in assay [2] was > 1 µM throughout. In addition, the Emax in assay [1] (setting [4]) and in assay [2] was < 100% throughout.
On to `CC(C)CC[C@H](O)[C@@H](C)[C@H]1CC[C@H]2[C@@H]3CC=C4C[C@@](C)(O)CC[C@]4(C)[C@H]3CC[C@]12C` [Compound 75, (3S,8S,9S,10R,13S,14S,17R)-17-((2S,3S)-3-hydroxy-6-methylheptan-2-yl)-3,10,13-trimethyl-2,3,4,7,8,9,10,11,12,13,14,15,16,17-tetradecahydro-1H-cyclopenta[a]phenanthren-3-ol], for which the EC50 in assay [1] and in assay [2] (setting [5]) was > 1 µM in each case. Also, the Emax in assay [1] (setting [4]) and in assay [2] (setting [6]) was < 100% in each case.
With `CC[C@]1(O)CC[C@@]2(C)C(=CC[C@H]3[C@@H]4CC[C@H]([C@H](C)[C@@H](O)CCC(C)C)[C@@]4(C)CC[C@@H]32)C1` [Compound 77, (3S,8S,9S,10R,13S,14S,17R)-3-ethyl-17-((2S,3S)-3-hydroxy-6-methylheptan-2-yl)-10,13-dimethyl-2,3,4,7,8,9,10,11,12,13,14,15,16,17-tetradecahydro-1H-cyclopenta[a]phenanthren-3-ol], the EC50 in assay [1] and in assay [2] (setting [5]) was > 1 µM in each case. Further, the Emax in assay [1] (setting [4]) and in assay [2] (setting [6]) was < 100% in each case.
`CC[C@]1(O)CC[C@H]2C(=CC[C@@H]3[C@@H]2CC[C@]2(C)[C@@H]([C@H](C)[C@H](O)CCC(C)C)CC[C@@H]32)C1` [Compound 3, (3S,8R,9S,10R,13S,14S,17R)-3-ethyl-17-((2S,3R)-3-hydroxy-6-methylheptan-2-yl)-13-methyl-2,3,4,7,8,9,10,11,12,13,14,15,16,17-tetradecahydro-1H-cyclopenta[a]phenanthren-3-ol]: the half-maximal effective concentration (EC50) in assay [1] and in assay [2] (setting [5]) was > 1 µM each time. For the same compound, the Emax in assay [1] (setting [4]) and in assay [2] (setting [6]) was < 100% each time.
On to `C[C@@H]([C@H]1CC[C@H]2[C@@H]3CC[C@H]4C[C@](O)(C(F)(F)F)CC[C@]4(C)[C@H]3CC[C@]12C)[C@@H](O)C[C@H](O)c1ccccc1` [Compound 25, (1S,3S,4S)-4-((3S,5S,8R,9S,10S,13S,14S,17R)-3-hydroxy-10,13-dimethyl-3-(trifluoromethyl)hexadecahydro-1H-cyclopenta[a]phenanthren-17-yl)-1-phenylpentane-1,3-diol], for which the EC50 in assay [1] (setting [3]) and in assay [2] was > 1 µM each time. Besides, the Emax in assay [1] (setting [4]) and in assay [2] was < 100% throughout.
As to `CC[C@]1(O)CC[C@@]2(C)[C@@H](CC[C@@H]3[C@@H]2CC[C@]2(C)[C@@H]([C@H](C)[C@H](O)CCC(C)C)CC[C@@H]32)C1` [Compound 24, (3S,5S,8R,9S,10S,13S,14S,17R)-3-ethyl-17-((2S,3R)-3-hydroxy-6-methylheptan-2-yl)-10,13-dimethylhexadecahydro-1H-cyclopenta[a]phenanthren-3-ol], the EC50 in assay [1] (setting [3]) and in assay [2] was > 1 µM each time. The maximum response (Emax) in assay [1] (setting [4]) and in assay [2] was < 100% throughout.
As to `C[C@H]([C@H](O)C[C@H](O)c1ccccc1)[C@H]1CC[C@H]2[C@@H]3CC[C@H]4C[C@](O)(C(F)(F)F)CC[C@]4(C)[C@H]3CC[C@]12C` [Compound 13, (1S,3R,4S)-4-((3S,5S,8R,9S,10S,13S,14S,17R)-3-hydroxy-10,13-dimethyl-3-(trifluoromethyl)hexadecahydro-1H-cyclopenta[a]phenanthren-17-yl)-1-phenylpentane-1,3-diol], the concentration for a half-maximal effect (EC50) in assay [1] (setting [3]) and in assay [2] was 0.001 to 0.1 µM in each case. Further, the Emax (commonly the greatest response seen or fitted, relative to the assay's reference) is < 100% in assay [1] (setting [4]) and 100 to 500% in assay [2].
Take `C[C@H]([C@H](O)C[C@@H](O)c1ccccc1)[C@H]1CC[C@H]2[C@@H]3CC[C@H]4C[C@](O)(C(F)(F)F)CC[C@]4(C)[C@H]3CC[C@]12C` [Compound 31, (1R,3R,4S)-4-((3S,5S,8R,9S,10S,13S,14S,17R)-3-hydroxy-10,13-dimethyl-3-(trifluoromethyl)hexadecahydro-1H-cyclopenta[a]phenanthren-17-yl)-1-phenylpentane-1,3-diol]: the figures for the EC50 in assay [1] (setting [3]) and in assay [2] were 0.001 to 0.1 µM and 0.1 to 1 µM, respectively. In addition, the maximum response (Emax) in assay [1] (setting [4]) and in assay [2] was 100 to 500% each time.
As for `CC(C)CC[C@@H](O)[C@@H](C)[C@H]1CC[C@H]2[C@@H]3CC[C@H]4C[C@@](C)(O)CC[C@]4(C)[C@H]3CC[C@]12C` [Compound 47, (3S,5S,8R,9S,10S,13S,14S,17R)-17-((2S,3R)-3-hydroxy-6-methylheptan-2-yl)-3,10,13-trimethylhexadecahydro-1H-cyclopenta[a]phenanthren-3-ol], the EC50 in assay [1] and in assay [2] (setting [5]) was > 1 µM throughout. Moreover, the Emax in assay [1] (setting [4]) and in assay [2] (setting [6]) was < 100% each time.
On to `CC[C@]1(O)CC[C@H]2[C@@H](CC[C@@H]3[C@@H]2CC[C@]2(C)[C@@H]([C@H](C)[C@@H](O)CCC(C)C)CC[C@@H]32)C1` [Compound 28, (3S,5S,8R,9R,10S,13S,14S,17R)-3-ethyl-17-((2S,3S)-3-hydroxy-6-methylheptan-2-yl)-13-methylhexadecahydro-1H-cyclopenta[a]phenanthren-3-ol], for which the EC50 in assay [1] and in assay [2] (setting [5]) was > 1 µM in each case. For the same compound, the maximum response (Emax) in assay [1] (setting [4]) was < 100%; in assay [2] (setting [6]) it was 100 to 500%.
Take `CC[C@]1(O)CC[C@H]2[C@H](CC[C@@H]3[C@@H]2CC[C@]2(C)[C@@H]([C@H](C)[C@@H](O)CCC(C)C)CC[C@@H]32)C1` [Compound 82, (3S,5R,8R,9R,10S,13S,14S,17R)-3-ethyl-17-((2S,3S)-3-hydroxy-6-methylheptan-2-yl)-13-methylhexadecahydro-1H-cyclopenta[a]phenanthren-3-ol]: the EC50 in assay [1] and in assay [2] (setting [5]) was > 1 µM in each case. Moreover, the Emax in assay [1] (setting [4]) and in assay [2] (setting [6]) was < 100% throughout.
As to `CC[C@]1(O)CC[C@H]2C(=CC[C@@H]3[C@@H]2CC[C@]2(C)[C@@H]([C@H](C)[C@@H](O)CCC(C)C)CC[C@@H]32)C1` [Compound 44, (3S,8R,9S,10R,13S,14S,17R)-3-ethyl-17-((2S,3S)-3-hydroxy-6-methylheptan-2-yl)-13-methyl-2,3,4,7,8,9,10,11,12,13,14,15,16,17-tetradecahydro-1H-cyclopenta[a]phenanthren-3-ol], the EC50 in assay [1] and in assay [2] (setting [5]) was > 1 µM throughout. For the same compound, the maximal effect (Emax) in assay [1] (setting [4]) and in assay [2] (setting [6]) was < 100% in each case.
